A short description of data set [1]: Differential pulse voltammetry, quinone reduction potentials. To be noted: DMSO, 0.1 M [N(nBu)4][PF6], 0.1 mM analyte, vs. SCE; for E 1/2 a (V) DPV: first reduction, semiquinone radical (NQ˙–); for E 1/2 b (V) DPV: second reduction, quinone dianion (NQ2–). It is filed as physicochemical. The procedure:
A series of electrochemical analyses, including cyclic voltammetry (CV) and differential pulse voltammetry (DPV), were carried out with [NnBu4][PF6] in anhydrous dimethyl sulfoxide (DMSO) in order to evaluate electronic properties of compounds 1–3 and 4[H][Cl]. […] These electrochemical features were attributed to the reduction of the quinone moiety to first produce the semiquinone radical (NQ^–) and then produce the quinone dianion (NQ^2–) forms of compounds 1–3 and 4[H][Cl].[70],[71] The quinone reduction potential in 4[H][Cl] occurs at –0.38 V, the lowest of all the molecules studied, indicative of a positively charged imidazolium ring. The quinone couple at –0.42 V observed for compound 1 is ascribed to the presence of bis(NHC). The same wave in compound 3 appears at a more negative potential (–0.47 V), presumably due to greater trans effects excreted by quinone annulated NHC ligand than the metal-bound chloride. This analysis agrees well with the differences in the observed δ^13C (Au–Ccarbene) resonances for compounds 1 and 3. […]
mM) as referenced to SCE (internal standard Fc0/+, adjusted to 0.435 V vs. SCE).

Data set [2] has as its system A549 lung cancer cells. Description: Cell proliferation (MTT assay) in A549 lung cancer cells. It is filed as cell-based, human. To be noted: for Fold less potent than 1 in cell proliferation: A549. The method, then:
To gauge the ability of each complex to inhibit cancer cell growth, A549 lung cancer cells were treated with 1–3, 4[H][Cl], doxorubicin, and auranofin in a dose responsive manner. Cellular vitality (i.e., mitochondrial reductase activity) was then quantified colorimetrically post treatment using 3-(4,5-dimethylthiazol-2-yl)-2,5-diphenyltetrazolium bromide (MTT assay) (Table 2, Fig. 5).
(§1) Biological preparations and assays
(§2) Experimental compound preparation. Stock solutions of complexes 1–3, 4[H][Cl], auranofin (Tocris Bioscience 4600), and doxorubicin (Tocris Bioscience 2252) were dissolved in DMSO (2.5–10 mM, depending on the compound and its solubility), aliquoted, and stored at -80 °C prior to use.
(§3) Biological Materials and Cell Lines. Cell lines were obtained from the ATCC (A549 and PC-3) and Prof.
Zahid Siddik at M.D. Anderson Cancer Center (A2780 and A2780CP). Cell culture plastic ware (i.e. T-75 flasks, treated 6-well plates, treated 96-well plates, and cell scrapers) were obtained from Fisher Scientific. Cell were cultured in RPMI 1640 culture medium (+2mM glutamine, +25mM HEPES, Corning 10041cv) supplemented with 10% heat-inactivated fetal bovine serum (RMBIO FBS-BBT) and 1X penicillin-streptomycin (Sigma p4333). Unless otherwise noted, incubators were set to 37°C and 5% CO2.
Trypsin (HyClone SH30236.01) and 1X Phosphate Buffered Saline (HyClone SH30258.02, diluted in autoclaved deionized water) were utilized for general cell line maintenance and harvesting. Trace Metal […]
Cell Proliferation Studies. Cells were harvested and seeded into 96-well culture plates (Costar 07-200-90) in 100µL of culture media. They were allowed to incubate overnight at 37 °C in the presence of 5% CO2. […]
and PC-3 at 2000 cells/well. […]
were made. To each well of a 96 well plate was added 100 µL of the appropriate solution. After a total of three days, a […] aliquot of 3 mg/mL tetrazolium dye, 3-(4,5-dimethylthiazol-2-yl)-2,5-diphenyltetrazolium bromide (Alfa Aesar L11939) was added to each well, followed by a 4 hr incubation period at 37 °C. The medium was then removed, the resulting formazan was dissolved in […] DMSO and the respective absorbances were measured at 560–650 nm using a microplate reader (Molecular Devices, Sunnyvale, CA). Absorbance values were corrected for background and then normalized to wells containing untreated cells to allow for plate-to-plate comparisons. The data are shown as mean inhibition of proliferation or growth as a percentage of control cells and are from 2–3 replicate experiments. Resulting dose response curves were subjected to linear regression analysis (Origin by OriginLab, Inc.) for determination of IC50 values.
(Tetrazolium dyes change colour on reduction, which living cells bring about.)

Data set [3] concerns thioredoxin reductase (TrxR). To be noted: 6 h exposure; for Inhibition of TrxR at higher concentrations: A549, 1.25–5.0 μM, lipoate reduction; for Inhibition of TrxR at low concentrations: A549, 0.1–0.6 μM, lipoate reduction over 180 min.
Procedure: Briefly, plateau phase A549 cells were exposed to variable doses of complexes 1, 3, 4[H][Cl], a 2 : 1 molar ratio of 4[H][Cl] and 5 (cocktail), auranofin, and doxorubicin for 6 h. Post treatment, the live cells were monitored colorimetrically over 180 min for their ability to reduce lipoate (Fig. 8a).
Data set [4] relates to A549 lung cancer cells. As to the kind of experiment: ICP-MS detection of intracellular Au (cellular uptake).
The next data set has as its system A549 cells. Description: Detection of intracellular ROS by flow cytometry (CM-H2DCFDA). It is filed as cell-based, human. The note with it: for Increase in intracellular ROS (fluorescence cell population shift): A549, 2.5 μM, 6 h incubation, CM-H2DCFDA; for Intracellular ROS increase, in words: A549, 0.625–2.5 μM, 6 h. (In flow cytometry, cells or beads pass a laser one at a time.)

The nature of data set [5]: Serum protein binding: free Au in fetal bovine serum by ICP-MS. It is filed as in vitro ADME. The note with it: 25 μM in FBS, 37 °C, methanolic extracts, up to 100 h. The method, then: To assess potential drug protein interactions, samples of fetal bovine serum (FBS) were treated with 25 μM 1, 3, and auranofin prior to incubating at 37 °C. Aliquots were taken and the free Au (non-protein bound, methanolic extracts) content was analyzed by ICP-MS (Fig. 6b).
Serum Protein Binding Studies.
aliquots were stored at -80°C.
in an Edvotek microcentrifuge. […] Samples
Detection of ROS by Flow Cytometry.
cells were treated with vehicle only.
g) at 5 °C. […] The pellet was
Control samples of unstained cells,
overnight. […] Post incubation, the media was
After incubation, the dye-
Cells were then imaged fluorescently
Lipoate Inhibition Assays.
well culture plates. […] The next day, appropriate
were added to each well. […] Afterwards, the liquid was then

Data set [6] deals with DNA duplex (5'CCGCAGCCA3'/5'TGGCTGCGG3'). Description: Thermal denaturation of a DNA duplex. The data set is classed as binding. The note with it: 1 molar equivalent, 5 μM complex and duplex.
The test system of another data set is A2780 ovarian. As to the kind of experiment: Cell proliferation (MTT assay) in A2780 ovarian cells. The data set is classed as cell-based, human. To be noted: Homo sapiens, A2780; wt-p53, platinum sensitive; Table 3. The procedure:
(§4) Further anti-proliferation studies were carried out with complex 1 and its naphthoquinone component 4[H][Cl] using the following cell lines: A2780 ovarian (a wt-p53 cell line sensitive to platinum treatment), 2780CP ovarian (isogenic to A2780 but expressing multi-drug resistance (MDR)), and PC-3 prostate (p53 null) (Table 3).
as §1, §2, §3
(§5) Zahid Siddik at M.D. Anderson Cancer Center (A2780 and A2780CP). Cell culture plastic ware (i.e. T-75 flasks, treated 6-well plates, treated 96-well plates, and cell scrapers) were obtained from Fisher Scientific. […]
(§6) were made. […] The medium was then removed, the resulting formazan was dissolved in […] DMSO and the respective absorbances were measured at 560–650 nm using a microplate reader (Molecular Devices, Sunnyvale, CA). Absorbance values were corrected for background and then normalized to wells containing untreated cells to allow for plate-to-plate comparisons. […]

The next data set concerns 2780CP ovarian. As to the kind of experiment: Cell proliferation (MTT assay) in 2780CP ovarian cells. The data set is classed as cell-based, human. To be noted: Homo sapiens; isogenic to A2780, multi-drug resistance; Table 3. The method, then:
as §4, §1, §2, §3, §5, §6

For another data set, the system named is PC-3 prostate. Description: Cell proliferation (MTT assay) in PC-3 prostate cells. The data set is classed as cell-based, human. To be noted: Homo sapiens, Prostate cell; p53 null; Table 3. The procedure:
as §4, §1, §2, §3, §5, §6

[7] abbreviates: A549, ratio of IC50 to that of 1 (Table 2).
The mark [8] stands for this setting: A549 lung cancer cells, MTT, 72 h, read-out: IC50.

Several values for one entry are separate records, joined by “and”; a condition that tells them apart may be missing. Equal entries are not always repeated. Where two headings read alike, the source gives them in different places. Some results are limits rather than exact numbers.

The IC50 is the concentration that gives 50% inhibition.

`Cc1cc(C)c(-n2c3c(n(-c4c(C)cc(C)cc4C)[c]2=[Au]([Cl])=[c]2n(-c4c(C)cc(C)cc4C)c4c(n2-c2c(C)cc(C)cc2C)C(=O)c2ccccc2C4=O)C(=O)c2ccccc2C3=O)c(C)c1` [Complex 2, [bis(1,3-dimesityl-4,5-naphthoquino-imidazol-2-ylidene)-gold(I)] chloride]: in [1], the “E 1/2 a (V) DPV” value is “–0.46 V” and the “E 1/2 b (V) DPV” value is given as “–1.31 V”. Also, in the data set with A549 lung cancer cells [2] (setting [7]), the “Fold difference relative to 1” value is 1. The IC50 in the data set on A549 lung cancer cells [2] (setting [8]) turned out to be 75 nM.
As to `Cc1cc(C)c(-[n+]2ccn(Cc3ccccc3)[c]2[Au-][c]2n(Cc3ccccc3)cc[n+]2-c2c(C)cc(C)cc2C)c(C)c1.[Cl-]` [Complex 5, bis(1-benzyl-3-mesityl-imidazol-2-ylidene)-gold(I) chloride, reference compound], the “Inhibition of TrxR at higher concentrations” value in [3] is given as “became evident”. The “Fold less potent than 1 in cell proliferation” value with A549 lung cancer cells [2] is about 10 fold. The “Fold difference relative to 1” value in the data set with A549 lung cancer cells [2] (setting [7]) turned out to be 9.72. In addition, in the data set on A549 lung cancer cells [2] (setting [8]), the IC50 stood at 710 nM. For the same compound, in the data set on A549 lung cancer cells [4] (A549, ICP-MS), the “Intracellular Au levels (uptake), in words” value is “identical”. Further, the “Increase in intracellular ROS (fluorescence cell population shift)” value in the data set with A549 cells is reported as about 11 fold.
Consider `CC(=O)OC[C@H]1O[C@@H]([S-])[C@H](OC(C)=O)[C@@H](OC(C)=O)[C@@H]1OC(C)=O.CCP(CC)CC.[Au+]` [Auranofin, reference compound], for which the “Free Au (non-protein bound) content over time” value in data set [5] is on record as “decreased in a time dependent manner”. Besides, in data set [3], the “Inhibition of TrxR at low concentrations” value is listed as “inhibition of TrxR was apparent”. The “Fold less potent than 1 in cell proliferation” value in the data set with A549 lung cancer cells [2] was determined as 23 fold. Further, the “Fold difference relative to 1” value in the data set on A549 lung cancer cells [2] (setting [7]) was 22.9. The IC50 in the data set on A549 lung cancer cells [2] (setting [8]) was determined as 1670 nM. For the same compound, in the data set with A549 lung cancer cells [4] (A549, regardless of dose), the “Increase in intracellular Au concentration as compared to complex 1” value was 2–5 fold. Besides, the “Intracellular ROS increase, in words” value in the data set on A549 cells was “minimal or no ROS increase”.
With `Cc1cc(C)c(-n2c[n+](-c3c(C)cc(C)cc3C)c3c2C(=O)c2ccccc2C3=O)c(C)c1` [4[H][Cl], 1,3-dimesitylnaphthoquinimidazolium], in data set [6], the “Thermal stabilization of DNA” value is reported as “no thermal stabilization”. In addition, in data set [1], the “E 1/2 a (V) DPV” value is “–0.38 V”. Besides, the “E 1/2 b (V) DPV” value in data set [1] is listed as “–1.15 V”. Besides, the IC50 in the data set with A2780 ovarian stood at 159 ± 58 nM; in the data set on 2780CP ovarian, 626 ± 117 nM; in the data set with PC-3 prostate, 136 ± 20 nM; in the data set on A549 lung cancer cells [2] (Homo sapiens, A549, 72 h, A549 lung cancer cells, MTT, 72 h, read-out: IC50), 990 ± 120 nM; with A549 lung cancer cells [2] (Homo sapiens, A549, Table 3, error = standard error from the mean, read-out: IC50 A549 lung), 994 ± 120 nM. In data set [3], the “Inhibition of TrxR at higher concentrations” value is “became evident”. Also, in the data set with A549 lung cancer cells [2], the “Fold less potent than 1 in cell proliferation” value is about 14 fold. Also, the “Fold difference relative to 1” value in the data set on A549 lung cancer cells [2] (setting [7]) came out at 13.6. Moreover, the “Increase in intracellular ROS (fluorescence cell population shift)” value in the data set on A549 cells is listed as about 11 fold.
For `Cc1cc(C)c(-n2c3c([n+](-c4c(C)cc(C)cc4C)[c]2[Au-][Cl])C(=O)c2ccccc2C3=O)c(C)c1` [Complex 3, 1,3-dimesityl-4,5-naphthoquino-imidazol-2-ylidene)-gold(I) chloride], in data set [1], the “E 1/2 a (V) DPV” value is listed as “–0.47 V” and the “E 1/2 b (V) DPV” value is “–1.31 V”. In addition, in [3], the “Inhibition of TrxR at higher concentrations” value was “remained inactive”. Also, the “Fold less potent than 1 in cell proliferation” value in the data set with A549 lung cancer cells [2] was > 150 fold and 165 fold. Also, in the data set on A549 lung cancer cells [2] (setting [7]), the “Fold difference relative to 1” value was determined as 165. For the same compound, the IC50 with A549 lung cancer cells [2] (setting [8]) is 12100 nM. In addition, the “Intracellular Au levels (uptake), in words” value in the data set with A549 lung cancer cells [4] is given as “no intracellular Au was detected”. Further, the “Intracellular ROS increase, in words” value in the data set with A549 cells was “minimal or no ROS increase”.
Consider `COc1cccc2c1C(=O)c1c(O)c3c(c(O)c1C2=O)C[C@@](O)(C(=O)CO)C[C@@H]3O[C@H]1C[C@H](N)[C@H](O)[C@H](C)O1` [Doxorubicin, reference compound], for which the “Thermal stabilization of DNA” value in data set [6] was “Significant DNA stabilization”. For the same compound, in [3], the “Inhibition of TrxR at low concentrations” value is “little to no inhibition” and the “Inhibition of TrxR at higher concentrations” value was “remained inactive”. Also, the “Fold difference relative to 1” value in the data set with A549 lung cancer cells [2] stood at 1.41. The “Intracellular ROS increase, in words” value in the data set on A549 cells is listed as “minimal or no ROS increase”.

These data come from publication PMC5859730, “Dual targeting of the cancer antioxidant network with 1,4-naphthoquinone fused Gold(I) N-heterocyclic carbene complexes” (Chemical Science, 2017).
